# Patent US8796327B2, “Method for inhibiting production of cytokines of T helper cell type II and/or inhibiting production of chemokines using brazilin” (China Medical University, priority 2010, dated 2014)
# Columns and labels:
# [1] = test system: IL-4; experiment: ELISA of IL-4 in supernatant of EL-4 T lymphoma cells; format: cell-based, mouse; conditions: EL-4 cells, no PMA + cAMP
# [2] = test system: IL-4; experiment: as above; format: cell-based, mouse; conditions: EL-4 cells
# Description: First, in an incubator containing 5 vol % of CO2 at 37° C., EL-4 mouse T lymphoma cells (commercially available from ATCC, Manassas, Va., America) were cultured in the DMEM culture medium (containing 10 wt % of thermally deactivated FBS), and were sub-cultured at a ratio of 1:3.
# Then, at a density of 5×10^5 counts/ml, the T lymphoma cells were bred in a six-well culture dish, and at the 0th minute, brazilin of different concentrations (0.3, 1, 3, 10, or 30 micromole (μM)) was added into the cell culture solution at an amount of 1 μl/ml-cell culture solution. Then, the cells were put into the incubator to be cultured therein. 30 minutes later, at an amount of 1 μl/ml-cell culture solution, 5 μg/ml PMA and cAMP at a 250 mmol concentration were added to the cell culture solution to stimulate the expression of IL-4 and IL-5 of the T lymphoma cells. During the process of cell culture, the trypan blue exclusion assay was employed to observe effect of the brazilin on the cell viability, results of which are shown in Table 1 and FIG. 1.
# At 4° C., the T lymphoma cells obtained from Experiment A were centrifugally rotated at a rotational speed of 1000 rpm and at 4° C. for 5 minutes, and the supernatant was collected and analyzed for cytokines.
# An enzyme-linked immunosorbent assay (ELISA) kit (commercially available from R&D Systems, Inc., America) was used to analyze the expression of IFN-γ, IL-4, IL-5, and eotaxin cytokines in the aforesaid supernatant, results of which are shown in Table 2, Table 3, FIG. 2, and FIG. 3.
# In Experiment B and the following Experiment C, all experimental data are presented in form of “mean±standard deviation”, and statistical discrepancy was analyzed by means of the One-way ANOVA and Newman-keuls post-hoc tests, in which it is considered that there is statistical discrepancy if p<0.05.
# [3] = test system: invasion of inflammatory cells into the lungs; experiment: Histopathological examination of H&E stained lung tissue slices, mice with asthma (OVA); format: in vivo; conditions: OVA-sensitized BALB/c mice, result in words
# Description: In Example 2, mice with asthma were used to conduct in vivo experiments, and ovalbumin (OVA) was used as an allergen.
# The mice were sensitized (or challenged) according to the steps shown in FIG. 9 (see Lee et al., Lentiviral-mediated GATA-3 RNAi decreases allergic airway inflammation and hyperresponsiveness. Molecular Therapy, 2008; 16:60-65, which is incorporated herein in its entirety by reference). First, 50 μg OVA (using 2 mg alumina (Alum, Alumlmuject, Pierce Chemical, Rockford, Ill., USA) as an adjuvant) was injected into six to eight-week-old BALB/c female mice (from National Laboratory Animal Center, Taiwan) by intraperitoneal injection (i.p.). At 0th, 14th, and 28th day, the mice were injected with OVA at the same dosage. Before the administration of OVA at the forty-first and the forty-second days, different dosages of brazilin (high dose: 430 μg/mice; low dose: 43 μg/mice) were administrated to the mice by intraperitoneal injection (i.p.) or intratracheal instillation (i.t.). During the fortieth to the forty-second days, 100 μg OVA was dissolved in 40 μl PBS, and was administrated to the mice by intranasal instillation (i.n.) (once everyday, for three days). At the forty-third day, airway hyperresponsiveness of the mice was observed. […]
smiles,measurement,setting,value
Oc1ccc2c(c1)OC[C@]1(O)Cc3cc(O)c(O)cc3[C@H]21 [brazilin],Concentration of IL-4 (pico-gram/ml),[1]; brazilin 0.3 μM,2.569 ± 0.1160 pico-gram/ml
same,Concentration of IL-4 (pico-gram/ml),[1]; brazilin 1 μM,5.353 ± 1.276 pico-gram/ml
same,Concentration of IL-4 (pico-gram/ml),[1]; brazilin 3 μM,5.469 ± 0.1160 pico-gram/ml
same,Concentration of IL-4 (pico-gram/ml),[1]; brazilin 10 μM,7.093 ± 0.3480 pico-gram/ml
same,Concentration of IL-4 (pico-gram/ml),[1]; brazilin 30 μM,4.715 ± 0.9859 pico-gram/ml
same,expression of protein of IL-4 cytokine,[2]; result in words,inhibited
same,Concentration of IL-4 (pico-gram/ml),[2]; brazilin 0.3 μM + PMA + cAMP,23.93 ± 2.214 pico-gram/ml
same,Concentration of IL-4 (pico-gram/ml),[2]; brazilin 1 μM + PMA + cAMP,22.49 ± 1.969 pico-gram/ml
same,Concentration of IL-4 (pico-gram/ml),[2]; brazilin 3 μM + PMA + cAMP,23.45 ± 2.693 pico-gram/ml
same,Concentration of IL-4 (pico-gram/ml),[2]; brazilin 10 μM + PMA + cAMP,23.13 ± 2.297 pico-gram/ml
same,Concentration of IL-4 (pico-gram/ml),[2]; brazilin 30 μM + PMA + cAMP,18.71 ± 1.206 pico-gram/ml
same,"invasion of inflammatory cells (H&E lung slices, FIG. 11)",[3],reduced
